Reference: ChEMBL document CHEMBL1141241, “3,6-disubstituted coumarins as mechanism-based inhibitors of thrombin and factor Xa” (J Med Chem, 2005)

What was measured:
[1] = target: Prothrombin (Homo sapiens) (UniProt P00734); settings: at 2 µM
Description: Inhibitory activity against human thrombin at 2 uM

[2] = target: Coagulation factor X (Homo sapiens) (UniProt P00742); test: Inhibitory activity against human FXa at 5 uM; values are per cent of control
[3] = Selectivity ratio for human thrombin over bovine trypsin

Coagulation factor X (Homo sapiens), sequence (P00742 41-179 limits assumed): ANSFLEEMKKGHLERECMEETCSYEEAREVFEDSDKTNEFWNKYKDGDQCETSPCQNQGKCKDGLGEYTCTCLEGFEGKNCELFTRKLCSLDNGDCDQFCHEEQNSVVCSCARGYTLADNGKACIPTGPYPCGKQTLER
Coagulation factor X (Homo sapiens), sequence (P00742 235-488 limits assumed): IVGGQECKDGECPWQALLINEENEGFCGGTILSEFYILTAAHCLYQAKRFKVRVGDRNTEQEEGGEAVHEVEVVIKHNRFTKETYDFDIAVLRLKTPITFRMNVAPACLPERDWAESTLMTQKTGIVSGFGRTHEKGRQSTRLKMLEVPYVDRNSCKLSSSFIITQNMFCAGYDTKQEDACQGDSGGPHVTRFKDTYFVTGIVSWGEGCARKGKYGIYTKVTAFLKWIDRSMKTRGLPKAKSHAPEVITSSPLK

residual activity [1]	residual activity [2]	Ratio [3]	SMILES
59%	92%		O=C(Oc1ccccc1I)c1cc2cc(CCl)ccc2oc1=O
95%	110%		O=C(OCc1ccccc1)c1cc2cc(CCl)ccc2oc1=O
10%	29%	25	O=C(Oc1cccc(Cl)c1)c1cc2cc(CCl)ccc2oc1=O
109%	113%		O=C(Oc1ccc2ccccc2c1)c1cc2cc(CCl)ccc2oc1=O
78%	134%		O=C(Oc1ccccc1Cl)c1cc2cc(CCl)ccc2oc1=O
100%	89%		O=C(Oc1ccccn1)c1cc2cc(CCl)ccc2oc1=O
8%	33%	55	O=C(Oc1cccc(Br)c1)c1cc2cc(CCl)ccc2oc1=O
79%	103%		Cc1ccccc1OC(=O)c1cc2cc(CCl)ccc2oc1=O
24%	61%		O=C(Oc1cccc(F)c1)c1cc2cc(CCl)ccc2oc1=O
35%	78%		Cc1cccc(OC(=O)c2cc3cc(CCl)ccc3oc2=O)c1
115%	109%		O=C(Oc1cccc2ccccc12)c1cc2cc(CCl)ccc2oc1=O
60%	59%		O=C(Oc1ccccc1)c1cc2cc(CCl)ccc2oc1=O

Further lines, the molecule ahead of its results:

SMILES	residual activity [1]	residual activity [2]	Ratio [3]
O=C(Oc1cccc(Cl)c1Cl)c1cc2cc(CCl)ccc2oc1=O	100%	125%	
O=C(Oc1cccc([N+](=O)[O-])c1)c1cc2cc(CCl)ccc2oc1=O	80%	124%	
O=C(Oc1cccc(C(F)(F)F)c1)c1cc2cc(CCl)ccc2oc1=O	66%	134%	
O=C(Oc1c(Cl)cccc1Cl)c1cc2cc(CCl)ccc2oc1=O	101%	109%	
O=C(Cc1cccc(Cl)c1)c1cc2cc(CCl)ccc2oc1=O	77%	77%	
O=C(Oc1cccc2cccnc12)c1cc2cc(CCl)ccc2oc1=O	107%	114%	
Cc1ccc(OC(=O)c2cc3cc(CCl)ccc3oc2=O)cc1	111%	72%	
O=C(Nc1cccc(Cl)c1)c1cc2cc(CCl)ccc2oc1=O	97%	89%	
O=C(Oc1cccc(I)c1)c1cc2cc(CCl)ccc2oc1=O	27%	73%	
O=C(Oc1ccc2ncccc2c1)c1cc2cc(CCl)ccc2oc1=O	98%	125%	
O=C(Oc1ccc(I)cc1)c1cc2cc(CCl)ccc2oc1=O	99%	80%	
O=C(Oc1cccc(Cl)c1)c1cc2ccccc2oc1=O	107%	77%	
COc1cccc(OC(=O)c2cc3cc(CCl)ccc3oc2=O)c1	66%	108%	
COc1cc(Cl)cc(OC(=O)c2cc3cc(CCl)ccc3oc2=O)c1	103%	126%	
Cc1ccc2oc(=O)c(C(=O)Oc3cccc(Cl)c3)cc2c1	70%	61%	
O=C(Sc1cccc(Cl)c1)c1cc2cc(CCl)ccc2oc1=O	107%	60%	
O=C(Oc1cc(Cl)ccc1Cl)c1cc2cc(CCl)ccc2oc1=O		39%	
O=C(Oc1cccnc1)c1cc2cc(CCl)ccc2oc1=O	113%	114%	
O=C(c1cccc(Cl)c1)c1cc2cc(CCl)ccc2oc1=O	100%	83%	
CC(=O)OCc1ccc2oc(=O)c(C(=O)Oc3cccc(Cl)c3)cc2c1	91%	82%	
O=C(Oc1ccc(Cl)cc1)c1cc2cc(CCl)ccc2oc1=O	107%	102%	
O=C(Oc1cc(Cl)cc(Cl)c1)c1cc2cc(CCl)ccc2oc1=O	102%	73%	
